Assay results reported in ChEMBL document CHEMBL5034014, “Melanocortin 1 Receptor Agonists Based on a Bivalent, Bicyclic Peptide Framework” (J Med Chem, 2021).
Bridge positions count the residues as written; N and C are the ends. Square brackets hold non-standard residues; d marks the D form. Peptide text beside a SMILES is read from it. NMeW = CN[C@@H](Cc1c[nH]c2ccccc12)C(=O)O; NMeR = CN[C@@H](CCCNC(=N)N)C(=O)O

Experiments:
Melanocortin receptor 5 = Melanocortin receptor 5 (Homo sapiens, UniProt P33032); test: Displacement of [125I]-NDP-alpha-MSH from human MC5R expressed in HEK2936E cell membrane measured after 16-23 hrs by 1450 microbeta trilux scintillation proximity assay; format: cell membranes
[1] = molecular target: T1, Melanocyte-stimulating hormone receptor (Homo sapiens, UniProt Q01726); test: Displacement of [125I]-NDP-alpha-MSH from human MC1R expressed in HEK2936E cell membrane measured after 16-23 hrs by 1450 microbeta trilux scintillation proximity assay; format: cell membranes
Melanocortin receptor 3 [2] = molecular target: T2, Melanocortin receptor 3 (Homo sapiens, UniProt P41968); test: Displacement of [125I]-NDP-alpha-MSH from human MC3R expressed in HEK2936E cell membrane measured after 16-23 hrs by 1450 microbeta trilux scintillation proximity assay; format: cell membranes
Melanocortin receptor 3 [3] = molecular target: T2, Melanocortin receptor 3; test: Agonist activity at human melanocortin receptor 3 expressed in human T-REx-293 cells assessed as stimulation of intracellular cAMP accumulation incubated for 45 mins by LANCE cAMP assay; format: functional, cell-based
[4] = molecular target: T1, Melanocyte-stimulating hormone receptor; test: Agonist activity at human melanocortin receptor 1 expressed in human T-Rex-293 cells assessed as stimulation of intracellular cAMP accumulation incubated for 45 mins by LANCE cAMP assay; format: functional, cell-based
Melanocortin receptor 4 [5] = molecular target: T3, Melanocortin receptor 4 (Homo sapiens, UniProt P32245); test: Displacement of [125I]-NDP-alpha-MSH from human MC4R expressed in HEK2936E cell membrane measured after 16-23 hrs by 1450 microbeta trilux scintillation proximity assay; format: cell membranes
Melanocortin receptor 4 [6] = molecular target: T3, Melanocortin receptor 4; test: Agonist activity at human melanocortin receptor 4 expressed in human T-REx-293 cells using low doxycycline assessed as stimulation of intracellular cAMP accumulation incubated for 45 mins by LANCE cAMP assay; format: functional, cell-based
Melanocortin receptor 4 [7] = molecular target: T3, Melanocortin receptor 4; test: Agonist activity at human melanocortin receptor 4 expressed in human T-REx-293 cells using high doxycycline assessed as stimulation of intracellular cAMP accumulation incubated for 45 mins by LANCE cAMP assay; format: functional

Chain of Melanocortin receptor 5 (P33032 whole entry): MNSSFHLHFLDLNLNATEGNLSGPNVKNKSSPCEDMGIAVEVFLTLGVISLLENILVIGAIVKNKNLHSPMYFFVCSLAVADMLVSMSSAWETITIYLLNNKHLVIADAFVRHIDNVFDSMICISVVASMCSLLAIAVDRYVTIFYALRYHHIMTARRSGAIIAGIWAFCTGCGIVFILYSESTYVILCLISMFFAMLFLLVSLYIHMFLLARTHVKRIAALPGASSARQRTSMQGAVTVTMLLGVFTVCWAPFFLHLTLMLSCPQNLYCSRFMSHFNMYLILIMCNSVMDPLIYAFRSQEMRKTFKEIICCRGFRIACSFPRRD
T2 sequence (P41968 whole entry): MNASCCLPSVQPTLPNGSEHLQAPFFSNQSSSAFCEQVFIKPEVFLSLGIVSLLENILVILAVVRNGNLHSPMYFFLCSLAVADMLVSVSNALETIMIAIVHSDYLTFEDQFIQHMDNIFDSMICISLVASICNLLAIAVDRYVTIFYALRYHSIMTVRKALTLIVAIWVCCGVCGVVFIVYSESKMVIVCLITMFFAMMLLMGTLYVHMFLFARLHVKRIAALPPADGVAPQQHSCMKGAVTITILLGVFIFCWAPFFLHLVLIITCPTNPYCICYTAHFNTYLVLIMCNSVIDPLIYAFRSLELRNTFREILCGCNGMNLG
T1 sequence (Q01726 whole entry): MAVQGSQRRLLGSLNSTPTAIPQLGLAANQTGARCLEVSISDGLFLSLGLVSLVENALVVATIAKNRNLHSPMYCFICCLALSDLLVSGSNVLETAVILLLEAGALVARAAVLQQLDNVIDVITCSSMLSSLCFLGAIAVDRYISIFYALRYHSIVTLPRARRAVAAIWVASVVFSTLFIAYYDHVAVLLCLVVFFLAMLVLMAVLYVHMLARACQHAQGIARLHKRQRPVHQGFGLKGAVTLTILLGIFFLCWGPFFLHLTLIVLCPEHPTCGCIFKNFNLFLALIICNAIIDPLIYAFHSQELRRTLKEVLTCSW
T3 sequence (P32245 whole entry): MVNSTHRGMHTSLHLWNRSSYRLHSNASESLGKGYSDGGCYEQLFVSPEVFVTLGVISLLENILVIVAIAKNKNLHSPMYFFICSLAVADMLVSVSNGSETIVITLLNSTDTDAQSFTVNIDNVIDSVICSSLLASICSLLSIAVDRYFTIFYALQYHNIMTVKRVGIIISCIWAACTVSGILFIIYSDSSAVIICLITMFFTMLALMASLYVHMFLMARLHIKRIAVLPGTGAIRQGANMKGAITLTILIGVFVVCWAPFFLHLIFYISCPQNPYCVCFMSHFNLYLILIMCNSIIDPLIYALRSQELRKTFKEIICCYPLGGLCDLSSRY

Row | Structure (SMILES) | IC50 (Melanocortin receptor 5) [nM] | Ki [1] [nM] | Ki (Melanocortin receptor 3 [2]) [nM] | EC50 (Melanocortin receptor 3 [3]) [nM] | EC50 [4] [nM] | Ki (Melanocortin receptor 4 [5]) [nM] | EC50 (Melanocortin receptor 4 [6]) [nM] | EC50 (Melanocortin receptor 4 [7]) [nM]
2 | CC[C@H](C)[C@@H]1NC(=O)[C@@H]2CCCN2C(=O)[C@H](Cc2c[nH]c3ccccc23)N(C)C(=O)[C@H](CCCNC(=N)N)NC(=O)[C@@H](Cc2ccccc2)NC(=O)[C@H](Cc2cnc[nH]2)NC(=O)[C@H]([C@@H](C)O)NC(=O)[C@@H]2CSSC[C@H](NC1=O)C(=O)N[C@@H](Cc1ccccc1)C(=O)N1CCC[C@H]1C(=O)N[C@@H](CC(=O)O)C(=O)NCC(=O)N[C@@H](CCCNC(=N)N)C(=O)N2 (cyclo(CFPDGRCTH[dF]R[NMeW]PI); disulfide 1-7) | 1000 | 339 | > 1000 | 282 | 64.6 | 617 | 46.8 | 3.09
3 | CN1C(=O)[C@@H](Cc2ccccc2)NC(=O)[C@H](Cc2c[nH]cn2)NC(=O)CNC(=O)[C@@H]2CSSC[C@H](NC(=O)[C@H](CCCNC(=N)N)NC(=O)[C@@H](CC(=O)O)NC(=O)[C@H](Cc3c[nH]c4ccccc34)NC(=O)[C@@H]1CCCNC(=N)N)C(=O)N[C@@H](Cc1c[nH]cn1)C(=O)N[C@H](Cc1ccccc1)C(=O)N(C)[C@@H](CCCNC(=N)N)C(=O)N(C)[C@@H](Cc1c[nH]c3ccccc13)C(=O)N[C@@H](CCCNC(=N)N)C(=O)N2 | 1510 | 4.9 | 148 | 24 | 0.813 | 158 | 490 | 10.5
4 | CC[C@H](C)[C@@H]1NC(=O)[C@@H]2CCCN2C(=O)[C@@H]2CCCN2C(=O)[C@H]([C@@H](C)CC)NC(=O)[C@H](CO)NC(=O)[C@H](C)NC(=O)[C@H]([C@@H](C)O)NC(=O)[C@@H]2CSSC[C@H](NC1=O)C(=O)N[C@@H](Cc1c[nH]cn1)C(=O)N[C@H](Cc1ccccc1)C(=O)N(C)[C@@H](CCCNC(=N)N)C(=O)N(C)[C@@H](Cc1c[nH]c3ccccc13)C(=O)N[C@@H](CCCNC(=N)N)C(=O)N2 (cyclo(CTASIPPICH[dF][NMeR][NMeW]R); disulfide 1-9) | 724 |  | > 1000 | 129 | 0.759 | > 1000 | > 1000 | 58.9
5 | CC[C@H](C)[C@@H]1NC(=O)[C@@H]2CCCN2C(=O)[C@H](Cc2c[nH]c3ccccc23)NC(=O)[C@H](CCCNC(=N)N)N(C)C(=O)[C@@H](Cc2ccc3ccccc3c2)NC(=O)[C@@H]2CCCN2C(=O)[C@@H]2CCCN2C(=O)[C@@H]2CSSC[C@H](NC1=O)C(=O)N[C@@H](Cc1c[nH]cn1)C(=O)N[C@H](Cc1ccccc1)C(=O)N[C@@H](CCCNC(=N)N)C(=O)N[C@@H](Cc1c[nH]c3ccccc13)C(=O)N[C@@H](C)C(=O)N2 | 129 | 3.72 | 100 | 15.8 | 1.32 |  |  | 
6 | C[C@@H]1NC(=O)[C@H](Cc2c[nH]c3ccccc23)NC(=O)[C@H](CCCNC(=N)N)NC(=O)[C@@H](Cc2ccccc2)NC(=O)[C@H](Cc2c[nH]cn2)NC(=O)[C@@H]2CSSC[C@H](NC1=O)C(=O)N[C@@H]([C@@H](C)O)C(=O)N[C@@H](Cc1c[nH]cn1)C(=O)N[C@H](Cc1ccccc1)C(=O)N(C)[C@@H](CCCNC(=N)N)C(=O)N[C@@H](Cc1c[nH]c3ccccc13)C(=O)N1CCC[C@H]1C(=O)N[C@@H](C)C(=O)N2 | 550 | 8.13 | 135 | 4.07 | 1.07 |  |  | 

More lines, in order of falling IC50 (Melanocortin receptor 5), values ahead:

Row | IC50 (Melanocortin receptor 5) [nM] | Ki [1] [nM] | Ki (Melanocortin receptor 3 [2]) [nM] | EC50 (Melanocortin receptor 3 [3]) [nM] | EC50 [4] [nM] | Ki (Melanocortin receptor 4 [5]) [nM] | EC50 (Melanocortin receptor 4 [6]) [nM] | EC50 (Melanocortin receptor 4 [7]) [nM] | Structure (SMILES)
7 | 11200 | 195 | 3980 | 39.8 | 8.71 | 347 | 60.3 | 2.57 | CC[C@H](C)[C@@H]1NC(=O)[C@@H]2CCCN2C(=O)[C@H](Cc2c[nH]c3ccccc23)NC(=O)[C@H](CCCNC(=N)N)N(C)C(=O)[C@@H](Cc2ccccc2)NC(=O)[C@H](Cc2c[nH]cn2)NC(=O)[C@H]([C@@H](C)O)NC(=O)[C@@H](NC(C)=O)CSSC[C@@H](C(N)=O)NC1=O
8 | 1780 | 1.55 | 891 | 16.2 | 0.427 | 50.1 | 28.2 | 1.2 | CC[C@H](C)[C@@H]1NC(=O)[C@@H]2CCCN2C(=O)[C@H](Cc2c[nH]c3ccccc23)NC(=O)[C@H](CCCNC(=N)N)N(C)C(=O)[C@@H](Cc2ccccc2)NC(=O)[C@H](Cc2c[nH]cn2)NC(=O)[C@H]([C@@H](C)O)NC(=O)[C@@H]2CSSC[C@H](NC1=O)C(=O)N[C@@H](Cc1c[nH]cn1)C(=O)N[C@H](Cc1ccccc1)C(=O)N[C@@H](CCCNC(=N)N)C(=O)N[C@@H](C)C(=O)N[C@@H](CCCNC(=N)N)C(=O)N2
9 | 676 | 2.82 | 389 | 6.61 | 0.794 | 10.7 | 3.47 | 0.302 | CC[C@H](C)[C@@H]1NC(=O)[C@@H]2CCCN2C(=O)[C@H](Cc2c[nH]c3ccccc23)NC(=O)[C@H](CCCNC(=N)N)N(C)C(=O)[C@@H](Cc2ccccc2)NC(=O)[C@H](Cc2c[nH]cn2)NC(=O)[C@H]([C@@H](C)O)NC(=O)[C@@H]2CSSC[C@H](NC1=O)C(=O)N[C@@H](Cc1c[nH]cn1)C(=O)N[C@@H](C)C(=O)N[C@@H](CCCNC(=N)N)C(=O)N[C@@H](Cc1c[nH]c3ccccc13)C(=O)N[C@@H](CCCNC(=N)N)C(=O)N2
10 | 589 | 15.1 | 1150 | 56.2 | 2.24 | 91.2 | 44.7 | 2.19 | CC[C@H](C)[C@@H]1NC(=O)[C@@H]2CCCN2C(=O)[C@H](Cc2c[nH]c3ccccc23)NC(=O)[C@H](CCCNC(=N)N)N(C)C(=O)[C@@H](Cc2ccccc2)NC(=O)[C@H](Cc2c[nH]cn2)NC(=O)[C@H]([C@@H](C)O)NC(=O)[C@@H]2CSSC[C@H](NC1=O)C(=O)N[C@@H](Cc1c[nH]cn1)C(=O)N[C@H](Cc1ccccc1)C(=O)N[C@@H](C)C(=O)N[C@@H](Cc1c[nH]c3ccccc13)C(=O)N[C@@H](CCCNC(=N)N)C(=O)N2
11 | 380 | 0.148 | 105 | 3.55 | 0.0832 | 64.6 | 45.7 | 2.75 | CC[C@H](C)[C@@H]1NC(=O)[C@@H]2CCCN2C(=O)[C@H](Cc2c[nH]c3ccccc23)NC(=O)[C@H](CCCNC(=N)N)N(C)C(=O)[C@@H](Cc2ccccc2)NC(=O)[C@H](Cc2c[nH]cn2)NC(=O)[C@H](CCC(=O)O)NC(=O)[C@@H]2CSSC[C@H](NC1=O)C(=O)N[C@@H](Cc1c[nH]cn1)C(=O)N[C@H](Cc1ccccc1)C(=O)N(C)[C@@H](CCCNC(=N)N)C(=O)N(C)[C@@H](Cc1c[nH]c3ccccc13)C(=O)N[C@@H](CCCNC(=N)N)C(=O)N2
12 | 174 | 1.48 | 269 | 17.4 | 0.138 |  |  |  | CC[C@H](C)[C@@H]1NC(=O)[C@@H]2CCCN2C(=O)[C@H](Cc2c[nH]c3ccccc23)NC(=O)[C@H](CCCNC(=N)N)NC(=O)[C@@H](Cc2ccccc2)NC(=O)[C@H](Cc2c[nH]cn2)NC(=O)[C@H]([C@@H](C)O)NC(=O)[C@@H]2CSSC[C@H](NC1=O)C(=O)N[C@@H](Cc1c[nH]cn1)C(=O)N[C@H](Cc1ccccc1)C(=O)N[C@@H](CCCNC(=N)N)C(=O)N[C@@H](Cc1c[nH]c3ccccc13)C(=O)N[C@@H](CCCNC(=N)N)C(=O)N2
13 | 174 | 1.12 | 389 | 7.76 | 0.135 |  |  |  | CC[C@H](C)[C@@H]1NC(=O)[C@@H]2CCCN2C(=O)[C@H](Cc2c[nH]c3ccccc23)NC(=O)[C@H](CCCNC(=N)N)N(C)C(=O)[C@@H](Cc2ccccc2)NC(=O)[C@H](Cc2c[nH]cn2)NC(=O)[C@H]([C@@H](C)O)NC(=O)[C@@H]2CSSC[C@H](NC1=O)C(=O)N[C@@H](Cc1c[nH]cn1)C(=O)N[C@H](Cc1ccccc1)C(=O)N[C@@H](CCCNC(=N)N)C(=O)N[C@@H](Cc1c[nH]c3ccccc13)C(=O)N[C@@H](CCCNC(=N)N)C(=O)N2
